“And” between values parts separate entries of the source, which are not always exact repeats. Equal entries are not always repeated.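 Assay format: 96-well plates, 48-hour exposure. GI50 = concentration required for 50% inhibition of growth. At the TGI there is no net growth.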
Legend:
Assay in all cases: NCI anticancer screen, dose series, 48 h
[1] = tested on: IGROV1 ovarian
[2] = tested on: KM20L2 colon
[3] = tested on: NCI-H522 lung
[4] = tested on: ACHN renal
[5] = tested on: HCT-116 colon
[6] = tested on: M19-MEL melanoma
[7] = tested on: UACC-257 melanoma
[8] = tested on: SW-620 colon
[9] = tested on: HOP-62 NSCLC
[10] = tested on: EKVX NSCLC

| SMILES | TGI [1] | TGI [2] [µM] | TGI [3] [µM] | TGI [4] [µM] | TGI [5] [µM] | TGI [6] [µM] | TGI [7] | TGI [8] [µM] | TGI [9] [µM] | TGI [10] [µM] | GI50 [1] | GI50 [10] | GI50 [3] | GI50 [4] | GI50 [5] | GI50 [7] | GI50 [8] | GI50 [9] |
| --- | --- | --- | --- | --- | --- | --- | --- | --- | --- | --- | --- | --- | --- | --- | --- | --- | --- | --- |
| Cc1cc2cc(Cl)ccc2nc1C(=O)c1ccccc1 | > 100 µM | > 100 | > 100 | > 100 | > 100 | > 100 | > 100 µM | > 100 | > 100 | – | – | – | – | – | – | – | – | – |
| COC(=O)CCC(=O)CC(=O)C(=O)Nc1ccc(F)cc1 | > 100 µM | > 100 | > 100 | > 100 | > 100 | > 100 | > 100 µM | > 100 | > 100 | > 100 | – | – | – | – | – | – | – | – |
| CN(C)c1ccccc1CC(c1c[nH]c2ccccc12)c1c[nH]c2ccccc12 | 30.9 µM | 22.6 | 26.1 | 20.6 | 23.3 | 29.1 | 31.8 µM | 19.2 | 23.3 | 18.1 | – | – | – | – | – | – | – | – |
| O=C(Nc1ccc(Cl)c(Cl)c1)C(=O)Nn1c(=S)[nH]c2ccccc2c1=O | > 100 µM | > 100 | > 100 | > 100 | > 100 | > 100 | > 100 µM | > 100 | > 100 | > 100 | – | – | – | – | – | – | – | – |
| Cc1ccccc1N=Cc1ccc(N(CCC#N)S(=O)(=O)c2ccccc2)cc1 | > 100 µM | > 100 | > 100 | > 100 | > 100 | > 100 | > 100 µM | > 100 | > 100 | > 100 | – | – | – | – | – | – | – | – |
| Cc1ccc(C2(C)NC(=S)N(NC(N)=S)C2=S)cc1 (stereo not drawn) | > 100 µM | > 100 | – | > 100 | > 100 | > 100 | > 100 µM | > 100 | > 100 | > 100 | – | – | – | – | – | – | – | – |
| CS(=O)(=O)N1CCN(Cc2cc3nc(-c4cccc5[nH]ncc45)nc(N4CCOCC4)c3s2)CC1 | 0.425 µM and 0.301 µM | – | > 28 | > 100 | > 100 | – | 2.77 µM and > 2.32 µM | > 100 | > 100 | > 100 | 0.0571 µM and 0.0389 µM | 0.445 µM and 0.577 µM | 0.602 µM and 0.37 µM | 0.382 µM and 0.319 µM | 1.72 µM and 0.494 µM | 0.184 µM and 0.162 µM | 1.29 µM and 0.484 µM | 0.655 µM and 0.573 µM |
| C=C1C(=O)O[C@H]2[C@H]1CC/C(C=Nc1ccc(C(F)(F)F)cc1N)=C\CC[C@@]1(C)O[C@@H]21 | 18.4 µM | – | 7.8 | 22.1 | 11 | – | 25.8 µM | 13.2 | 26.5 | 23.4 | 3.36 µM | 10.8 µM | 2.43 µM | 6.9 µM | 2.38 µM | 12.3 µM | 3.67 µM | 12.8 µM |
| Fc1ccc(-c2ncn(C3CCNCC3)c2-c2ccnc(Oc3ccccc3)n2)cc1 | > 25 µM | – | > 25 | > 25 | > 25 | – | > 25 µM | > 25 | > 25 | > 25 | 13.5 µM | > 25 µM | > 25 µM | 7.22 µM | 14.8 µM | 12.5 µM | > 25 µM | > 25 µM |
| CCOC(=O)C1=C(N)Oc2c(sc3c(C)cccc23)C1c1ccc(Cl)cc1 (stereo not drawn) | 15.4 µM | – | 6.28 | 17.6 | 12.1 | – | 30.4 µM | 16.8 | 21.8 | 17.1 | 0.962 µM | 3.75 µM | 1.22 µM | 3.17 µM | 2.83 µM | 13.1 µM | 3.64 µM | 3.81 µM |
| O=C(O)CNC(=O)c1ccccc1O | > 100 µM | – | > 100 | > 100 | > 100 | – | > 100 µM | > 100 | > 100 | > 100 | – | – | – | – | – | – | – | – |
| CN(C)c1ccc(/C=C/C(=O)c2ccccc2)cc1Br | 48.5 µM | 57.6 | 31.4 | 51.1 | – | 37.1 | 52.6 µM | 43.8 | > 100 | > 100 | – | – | – | – | – | – | – | – |
| COc1ccc(NC(=O)CC/C(CC(=O)c2ccccc2Cl)=N\Nc2nnc(C)n2N)cc1 | > 100 µM | > 100 | – | > 100 | > 100 | > 100 | > 100 µM | > 100 | – | > 100 | – | – | – | – | – | – | – | – |
| COc1ccc(C(=O)/C(=N/Nc2ccccc2)c2ccc(OC)cc2)cc1 | > 100 µM | 51.5 | > 100 | > 100 | > 100 | > 100 | > 100 µM | > 100 | – | > 100 | – | – | – | – | – | – | – | – |
| O=C(c1ccccn1)c1nnn2ccccc12 | > 100 µM | – | > 100 | > 100 | > 100 | – | > 100 µM | > 100 | > 100 | > 100 | – | – | – | – | – | – | – | – |
| COc1ccc(-c2cn(-c3ccc(Cl)cc3)c(=S)[nH]2)cc1OC | > 100 µM | – | > 100 | > 100 | > 100 | – | > 100 µM | > 100 | > 100 | > 100 | 7.08 µM | 13.2 µM | 21.5 µM | 9.53 µM | 3.96 µM | > 100 µM | > 100 µM | 21.5 µM |
| O=C1NC2OCC(O)C(O1)C2O (stereo not drawn) | > 100 µM | > 100 | > 100 | > 100 | – | > 100 | > 100 µM | > 100 | > 100 | > 100 | – | – | – | – | – | – | – | – |
| CCOC(=O)c1ccc2c(c1)[n+](=O)c(C(=O)c1ccc3ccccc3c1)c(C(F)(F)F)n2[O-] | 1.21 µM | – | 1.87 | 2.93 | 1.46 | – | 3.24 µM | 2.92 | 3.08 | 3.14 | 0.361 µM | 1.56 µM | 0.458 µM | 1.47 µM | 0.373 µM | 1.79 µM | 1.52 µM | 1.66 µM |
| CSC(=S)N/N=C/c1ccccc1 | > 100 µM | – | > 100 | > 100 | > 100 | – | > 100 µM | > 100 | > 100 | > 100 | – | – | – | – | – | – | – | – |
